This data set is described as follows: Metabolic stability in human plasma. It counts as in vitro ADME. The note with it: 1 μM. The protocol: The compounds were incubated with plasma, and the collected samples were analyzed by UPLC/HR-MS to measure stability of the compounds.
Sample type: plasma; Species: CD1-mouse (male), human (mixed gender); Time points: 0, 20, 40, 60, 120 min;
Spiking solvent: 50% DMSO ( 1/100 to incubation); Quenching solvent: 2-fold volume of 100% ACN; Control: propanthelin bromide (human, mouse)
The study compounds were incubated with plasma as specified above. The collected samples were stored at −20 C until thawed at room temperature, centrifuged and analyzed using UPLC/PDA with high resolution mass spectrometry (QE-Orbitrap-MS on DDI mode) to monitor substrate depletion and metabolite formation. The analytical method was optimised by using the parent compounds for optimum chromatographic properties (peak shape and retention) and mass spectrometric ionisation. Disappearance was based on relative LC/MS peak areas (0 min=100%) and will be used to calculate half-lives.

Turning to `O=c1cc(-c2ccc(CCCC[P+](c3ccccc3)(c3ccccc3)c3ccccc3)cc2)oc2c(O)c(O)ccc12` [SND118, 4-[4-(7,8-dihydroxy-4-oxo-chromen-2-yl)phenyl]butyltriphenylphosphonium bromide], the “T1/2 plasma Human” value came out at 13.2 h.

These data come from patent US20220411448A1, “CHROMENE-4-ONE DERIVATIVES AS BRAIN-DERIVED NEUROTROPHIC FACTOR (BDNF) MIMETICS” (FLORATEK PHARMA AG, priority 2019, published 2022).
